Results: US20260263551A1, “TREATING CONDITIONS WITH HYPOGLYCEMIA ASSOCIATED WITH HYPERINSULINEMIA” (RESILIUN B.V., priority 2022, published 2026)
Where a SMILES comes first, the peptide text is derived from it.

What was measured:
mTOR = settings: piglets; cited from earlier work
Na+, K+-ATPase [1] = settings: purified preparation of Na+,K+-ATPase; cited from earlier work
Na+, K+-ATPase [2] = settings: cited from earlier work
Na+, K+-ATPase [3] = settings: rat renal tubular segments; peptides tested at 5×10^-7 mol/l; cited from earlier work
human skin fibroblast = settings: cited from earlier work
[4] = test system: fibroblasts and monocytes; settings: cited from earlier work
[5] = test system: human pulmonary microvascular endothelial cells (Hpmec); assay: Microvascular angiogenesis (sprouting) assay in Matrigel; type: cell-based; settings: t=16, 24 and 40h (P=0.48, 0.011 and 0.032)
Text: Microvascular angiogenesis assay of human pulmonary microvascular endothelial cells grown in Matrigel as determinant of ERC-reactivity and in response to increasing concentrations of GXXP-peptides 3, 6 and 8, (VGVAPGVGVAPGVGVAPG, QVGQVELGGGPGAGSLQP and GAYPGAPGAYPGAPAPGV, taken from the exon 24 region of human elastin, from the mid-portion of human C-peptide, and from the N-terminal portion of human Galectin-3, FIGS. 4a, 4b and 4c, respectively). Data shown are total tube length measurements and total branch length measurements at t=24 h. * p<0.05; ** p<0.01; *** p<0.001. At 4 h no angiogenic activity of the various peptides was as yet observed.
As measuring insulin resistance in vitro is a cumbersome feat, the effect of three elastin fragment peptides and related GXXP-peptides on endothelial cell sprouting were assessed instead. Endothelial cells (Hpmec, n=4) were serum starved for 24 hours, trypsinised and seeded in growth factor-reduced Matrigel. […] Sprouting by means of mean total tube length and mean total branch length per field of view were quantified with ImageJ software. […]
Pictures were analyzed using the plug-in angiogenesis analyzer in ImageJ. […]

[6] = in vivo; cited from earlier work
[7] = single infusion, healthy adults; cited from earlier work
[8] = infants >2 years of age; cited from earlier work

C[C@H](N)C(=O)N[C@@H](CCC(N)=O)C(=O)O [AQ, Alanyl-glutamine] (H-Ala-Gln-OH)
autophagy / mTOR modulation (mTOR): autophagy-inhibition

ELGGGPEAG [PG-domain peptide of rat C-peptide 1]
direct activation of isolated ATPase (Na+, K+-ATPase [1]): No measurable activation

human C-peptide: cleavage product of the proinsulin molecule (RREAEDLQVGQVELGGGPGAGSLQPLALEGSLQKR)
stimulation of 86Rb+ uptake (Na+, K+-ATPase [2]; 5 nM, 37° C., 10 min, HRTCs): 40%

COc1cccc(-c2cc(=O)c3ccccc3o2)c1N [PD98059]
effect on C-peptide-stimulated Na+,K+-ATPase activation, α1-subunit phosphorylation and translocation to BLM (Na+, K+-ATPase [2]; 20 μM, MEK1/2 inhibitor): abolished

CN(C)CCCn1cc(C2=C(c3c[nH]c4ccccc34)C(=O)NC2=O)c2ccccc21 [G F109203X]
effect on C-peptide stimulation of 86Rb+ uptake (Na+, K+-ATPase [2]; 1 μM preincubation, PKC inhibitor): abolished

EVARQ
activity relative to intact C-peptide (Na+, K+-ATPase [3]): 100%
direct activation of isolated ATPase (Na+, K+-ATPase [1]): No measurable activation

VGVAPG [Chemotactic Domain of Elastin, Bachem product number 4010536]
fibroblast proliferation (human skin fibroblast): stimulated human skin fibroblast proliferation
chemotactic activity [4]: chemotactic for fibroblasts and monocytes

CC(=O)N[C@H]1[C@H]([C@H](O)[C@H](O)CO)OC(C(=O)O)=C[C@@H]1O [DANA, 2,3-dehydro-2-deoxy-N-acetylneuraminic acid]
effect on the angiogenic effects of peptide 3 [5]: significantly potentiated

C[C@@H](O)[C@@H]1NC(=O)[C@H](CCCCN)NC(=O)[C@@H](Cc2c[nH]c3ccccc23)NC(=O)[C@H](Cc2ccccc2)NC(=O)[C@@H](NC(=O)[C@H](N)Cc2ccccc2)CSSC[C@@H](C(=O)N[C@H](CO)[C@@H](C)O)NC1=O [octreotide]
half-life [6]: around 100 min

EGSLQ
activity relative to intact C-peptide (Na+, K+-ATPase [3]): 75%
activity relative to the intact molecule (Na+, K+-ATPase [2]; HRTCs): 57%

B1: XOMA 358: antibody XOMA 358 (aka RZ358), monoclonal antibody given by infusion (antibody, chains of the INN, looked up, V domains shown)
VH: EVQLVETGGGVVQPGRSLRLSCAASGFTFSSYAMHWVRQAPGKGLEWYAVISYDGSNKYYADSVKGRFTISRDNSKNTLYLQMNSLRAEDTAVYYCARHEWGFGMDVWGQGTTVTVSS
VL: DVVMTQSPLSLSVTLGQPASISCRSSLSLVYGDENTYLNWFQQRPGQSPRRLLYKVSDRDSGVPDRFSGSGSGTDFTLKISRVEADDVGVYYCMQGTHWPYTFGQGTKLEIK
insulin sensitivity [7]: dose-dependent reduction in insulin sensitivity
hypoglycemia [8]: reduction of hypoglycemia
